The values below come from patent publication US10882869B2, “Condensed heterocyclic compounds and pesticides” (NISSAN CHEMICAL CORPORATION, priority 2015, dated 2021).

Data set [1] has as its system Nilaparvata lugens. The data set can be described thus: Systemic insecticidal test on Nilaparvata lugens (rice seedling root dip). Type of data set: in vivo. The conditions noted are these: 20 ppm solution, rice seedling roots dipped 7 days, 3rd-instar larvae, 6 days after release, 25° C. How it is done:
7 Days after, the rice seedlings were picked and put in test tubes, and in each tube, five 3rd-instar larvae of Nilaparvata lugens were released, and the tubes were capped with sponge and placed in an incubator at 25° C. 6 Days after the release of the insects, dead insects were counted, and the mortality (%) (the number of dead insects÷the number of released insects×100) was calculated. The test was carried out in duplicate.

The test system of data set [2] is Plutella xylostella. The data set can be described thus: Insecticidal test on Plutella xylostella (cabbage leaves soaked). Type of data set: in vivo. The settings on record: 144 h, 500 ppm solution, 3rd-instar larvae, 6 days after, 25° C. How it is done: Leaves of cabbage were soaked in the solutions for about 10 seconds. After the soaking, the leaves were dried in air and placed in dishes. In each dish, five 3rd-instar larvae of Plutella xylostella were released, and the dishes were covered with lids and placed in an incubator at 25° C. 6 Days after, dead insects in the dishes were counted, and the mortality was calculated by using the same equation as in Test Example 1. The test was carried out in duplicate.

Data set [3] concerns Spodoptera litura. The data set can be described thus: Insecticidal test on Spodoptera litura (cabbage leaves soaked). The data set is classed as in vivo. The conditions noted are these: 144 h, 500 ppm solution, 3rd-instar larvae, 6 days after, 25° C. How it is done:
Leaves of cabbage were soaked in the solutions for about 10 seconds. After the soaking, the leaves were dried in air and placed in dishes. In each dish, five 3rd-instar larvae of Spodoptera litura were released, and the dishes were covered with lids and placed in an incubator at 25° C. 6 Days after, dead insects in the dishes were counted, and the mortality was calculated by using the same equation as in Test Example 1. The test was carried out in duplicate.

Data set [4] has as its system Ctenocephalides felis. The data set can be described thus: Test on the effect on Ctenocephalides felis (thin film in glass container). The data set is classed as in vivo. The conditions noted are these: 96 h, application dose 10 μg/cm^2, adults, 4 days after release, 25° C. As to the method: (§1) 350 μl of the solutions were applied to the bottoms and the side walls of glass containers with an inner wall surface area of 35 cm^2, and acetone was volatilized to prepare thin films of the compounds on the inner walls of the glass containers. Since the inner wall surface area of each glass container was 35 cm^2, the application dose was 10 μg/cm^2.
To each glass container, five adults (male and female) of Ctenocephalides felis were released, and the containers were covered with lids and placed in an incubator at 25° C. 4 Days after the release of the fleas, dead fleas were counted, and the mortality was calculated by using the same equation as in Test Example 1.

Data set [5] deals with Plutella xylostella. The data set can be described thus: Soil irrigation test on Plutella xylostella. Type of data set: in vivo. The conditions noted are these: 144 h, 500 ppm solution, 10 ml soil irrigation of cabbage seedlings, leaves picked 5 days after, 3rd-instar larvae, 6 days after. As to the method:
The soil around the bases of cabbage seedlings (at the 2.5-leaf stage) planted in plastic cups was irrigated with 10 ml of the solutions. After the irrigation, the cabbage seedlings were placed in a greenhouse. 5 Days after the irrigation, leaves of cabbage were picked and placed in dishes. In each dish, five 3rd-instar larvae of Plutella xylostella were released, and the dishes were covered with lids and placed in an incubator at 25° C. 6 Days after, dead insects in the dishes were counted, and the mortality was calculated by using the same equation as in Test Example 1. The test was carried out in duplicate.

Data set [6] has as its system Rhipicephalus sanguineus. The data set can be described thus: Test on the effect on Rhipicephalus sanguineus (thin film in glass container). Type of data set: in vivo. The settings on record: 96 h, application dose 10 μg/cm^2, protonymphs, 4 days after release, 25° C. As to the method: as §1
To each glass container, five protonymphs (male and female) of Rhipiceohalus sanguineus were released, and the containers were covered with lids and placed in an incubator at 25° C. 4 Days after the release of the ticks, dead ticks were counted, and the mortality was calculated by using the same equation as in Test Example 1.

Data set [7] concerns Nilaparvata lugens. The data set can be described thus: Insecticidal test on Nilaparvata lugens (rice sheaths soaked). Type of data set: in vivo. The settings on record: 144 h, 500 ppm solution, 3rd-instar larvae, 6 days after, 25° C. As to the method: Rice sheaths were soaked in the solutions for about 10 seconds. After the soaking, the rice sheaths were dried in air and put in test tubes. In each tube, five 3rd-instar larvae of Nilaparvata lugens were released, and the tubes were capped with sponge and placed in an incubator at 25° C. 6 Days after, dead insects in the test tubes were counted, and the mortality (%) (the number of dead insects÷the number of released insects×100) was calculated. The test was carried out in duplicate.

Data set [8] relates to Myzus persicae. The data set can be described thus: Insecticidal test on Myzus persicae (cabbage leaf spray). Type of data set: in vivo. The settings on record: 144 h, 500 ppm solution sprayed (2.5 mg/cm^2), apterous adults on cabbage leaves, 6 days after, 25° C. As to the method: Wet absorbent cotton was laid on glass dishes having an inner diameter of 3 cm, and covered with leaves of cabbage cut into circles of the same diameter, and 4 apterous adults of Myzus persicae were released. […] The solutions were sprayed from a rotary spray tower (2.5 mg/cm^2), and the dishes were covered with lids and placed in an incubator at 25° C. 6 Days after, dead insects were counted, and the mortality was calculated by using the same equation as in Test Example 1. The test was carried out in duplicate.

The test system of data set [9] is Frankliniella occidentalis. Put plainly: Insecticidal activity on Frankliniella occidentalis (kidney bean leaf spray). The data set is classed as in vivo. The settings on record: 48 h, 500 ppm solution sprayed (2.5 mg/cm^2), larvae on kidney bean leaves, 2 days after. As to the method:
In styrol cups having an inner diameter of 7 cm, wet filter paper was laid, kidney bean leaves cut into a 3 cm square were laid on the paper, and each leaf was inoculated with 20 larvae of Frankliniella occidentalis. […] 2.5 ml of the solutions were sprayed from a rotary spray tower into the styrol cups (2.5 mg/cm^2).
2 Days after, dead insects were counted, and insect damage on kidney bean leaves was examined. The mortality was calculated by using the same equation as in Test Example 1.
The insect damage degree was evaluated as follows. 1: 0 to 20% insect damage, 2: 20 to 50% insect damage, 3: 50 to 70% insect damage, and 4: 70% or higher insect damge. The test was carried out in duplicate.

On to `CCS(=O)(=O)c1c(-c2nc3cc(C(F)(F)F)ncc3n2C)nc2cc(C(F)(F)F)ccn12` [1-8-005a, 2-[3-(ethylsulfonyl)-7-(trifluoromethyl)imidazo[1,2-a]pyridin-2-yl]-3-methyl-6-(trifluoromethyl)-3H-imidazo[4,5-c]pyridine], for which the mortality at 20 ppm in data set [1] was at least 90%. Moreover, the mortality at 500 ppm in data set [2], in data set [3], in data set [7] and in data set [8] was at least 90% each time. The mortality at 10 µg/cm2 in data set [4] and in data set [6] was at least 50% throughout. This compound also displayed a pest or weed control at 500 ppm in data set [5] of at least 90%.
Consider `CCSc1c(-c2nc3cc(SC(F)(F)F)cnc3n2C)nc2cc(C(F)(F)F)ccn12` [1-1-027b, 2-[3-(ethylthio)-7-(trifluoromethyl)imidazo[1,2-a]pyridin-2-yl]-3-methyl-6-((trifluoromethyl)thio)-3H-imidazo[4,5-b]pyridine], for which the mortality at 500 ppm in data set [2] and in data set [3] was at least 90% each time. The mortality at 10 µg/cm2 in [4] and in [6] was at least 50% each time.
With `CCSc1c(-c2nc3cc(C(F)(F)F)cnc3n2C)sc2ccc(C(F)(F)F)cc12` [3-1-002b, 2-[3-(ethylthio)-5-(trifluoromethyl)benzo[b]thiophen-2-yl]-3-methyl-6-(trifluoromethyl)-3H-imidazo[4,5-b]pyridine], the mortality at 20 ppm in [1] is at least 90%. Further, the mortality at 500 ppm in data set [2] and in data set [3] was at least 90% each time. Further, the mortality at 10 µg/cm2 in data set [4] and in [6] was at least 50% each time.
`CCS(=O)(=O)c1c(-c2nc3cc(C(F)(F)F)cnc3n2C)nc2cc(C(F)(F)F)ccn12` [1-1-002a, 2-[3-(ethylsulfonyl)-7-(trifluoromethyl)imidazo[1,2-a]pyridin-2-yl]-3-methyl-6-(trifluoromethyl)-3H-imidazo[4,5-b]pyridine] had a mortality at 20 ppm in data set [1] of at least 90%. Besides, the mortality at 500 ppm in data set [2], in data set [3], in data set [7] and in data set [8] was at least 90% each time. Also, the mortality at 10 µg/cm2 in data set [4] and in [6] was at least 50% throughout. Further, the pest or weed control at 500 ppm in [5] is at least 90%.
Consider `CC[S+]([O-])c1c(-c2nc3cc(C(F)(F)F)cnc3n2C)nc2cc(C(F)(F)F)cnn12` (stereo not drawn) [1-1-057c, 2-[3-(ethylsulfinyl)-7-(trifluoromethyl)imidazo[1,2-b]pyridazin-2-yl]-3-methyl-6-(trifluoromethyl)-3H-imidazo[4,5-b]pyridine], for which the mortality at 20 ppm in [1] is at least 90%. Besides, the mortality at 500 ppm in data set [2] was at least 90%; in [3], at least 90%; in [7], at least 90%; in [9], at least 50%; in [8], at least 90%. In addition, the mortality at 10 µg/cm2 in data set [4] and in [6] was at least 50% throughout.
For `CCCCC(CC)COC(=O)CCSc1cnc2c(c1)nc(-c1nc3cc(C(F)(F)F)ccn3c1SCC)n2C` (stereo not drawn) [1-1-028b, 2-ethylhexyl 3-((2-(3-(ethylthio)-7-(trifluoromethyl)imidazo[1,2-a]pyridin-2-yl)-3-methyl-3H-imidazo[4,5-b]pyridin-6-yl)thio)propanoate], the melting point is 94 to 96 °C.
For the compound `CCSc1c(-c2nc3cc(C(F)(F)F)ncc3n2C)nc2cc(Cl)ccn12` [1-8-006b, 2-[7-chloro-3-(ethylthio)imidazo[1,2-a]pyridin-2-yl]-3-methyl-6-(trifluoromethyl)-3H-imidazo[4,5-c]pyridine], the mortality at 500 ppm in data set [2] and in [3] was at least 90% each time. Also, the mortality at 10 µg/cm2 in [4] and in [6] was at least 50% in each case.
The compound `CCSc1c(-c2nc3cc(I)cnc3n2C)nc2cc(C(F)(F)F)ccn12` [1-1-026b, 2-[3-(ethylthio)-7-(trifluoromethyl)imidazo[1,2-a]pyridin-2-yl]-6-iodo-3-methyl-3H-imidazo[4,5-b]pyridine] showed a melting point of 230 to 233 °C.
On the same count and under the same terms, the same measure for `CCSc1c(-c2nc3cc(C(F)(F)F)cnc3n2C)nc2cnc(C(F)(F)F)cn12` [1-1-029b, 2-[3-(ethylthio)-6-(trifluoromethyl)imidazo[1,2-a]pyrazin-2-yl]-3-methyl-6-(trifluoromethyl)-3H-imidazo[4,5-b]pyridine]: 220 to 222 °C; for `CCSc1c(-c2nc3cc(C(F)(F)F)cnc3s2)nc2cc(C(F)(F)F)ccn12` [1-13-001b, 2-[3-(ethylthio)-7-(trifluoromethyl)imidazo[1,2-a]pyridin-2-yl]-6-(trifluoromethyl)thiazolo[5,4-b]pyridine]: 150 to 160 °C.
With `CCS(=O)(=O)c1c(-c2nc3cc(C(F)(F)F)cnc3n2C)nc2cc(C(F)(F)F)ncn12` [1-1-055a, 2-[3-(ethylsulfonyl)-7-(trifluoromethyl)imidazo[1,2-c]pyrimidin-2-yl]-3-methyl-6-(trifluoromethyl)-3H-imidazo[4,5-b]pyridine], the mortality at 500 ppm in [2] is at least 90%. The mortality at 10 µg/cm2 in [4] and in data set [6] was at least 50% each time.
As for `CCS(=O)(=O)c1c(-c2nc3cc(C(F)(F)F)cnc3n2C)nc2cc(C(F)(F)F)cnn12` [1-1-057a, 2-[3-(ethylsulfonyl)-7-(trifluoromethyl)imidazo[1,2-b]pyridazin-2-yl]-3-methyl-6-(trifluoromethyl)-3H-imidazo[4,5-b]pyridine], the mortality at 20 ppm in data set [1] is at least 90%. Further, the mortality at 500 ppm in data set [2] was at least 90%; in data set [3], at least 90%; in [7], at least 90%; in data set [9], at least 50%; in [8] it was at least 90%. Moreover, the mortality at 10 µg/cm2 in data set [4] and in data set [6] was at least 50% throughout. The pest or weed control at 500 ppm in data set [5] is at least 90%.
As to `CCSc1c(-c2nc3nc(C(F)(F)F)ccc3n2C)nc2cc(C(F)(F)F)ccn12` [1-7-001b, 2-[3-(ethylthio)-7-(trifluoromethyl)imidazo[1,2-a]pyridin-2-yl]-1-methyl-5-(trifluoromethyl)-1H-imidazo[4,5-b]pyridine], the melting point is 164 to 166 °C.

By mortality is commonly meant the share of the test organisms that died. By pest or weed control is commonly meant how far the test organism was held down. A higher pest or weed control goes with a strong effect. One may read the melting point as the temperature, or range, at which the solid turns liquid.
